Results reported in publication PMC6132687, “Stem cells are the most sensitive screening tool to identify toxicity of GATA4-targeted novel small-molecule compounds” (Archives of Toxicology, 2018).

Assays:
mESCs = test: MTT assay in mESCs; type: cell-based, mouse; settings: 24 h; for reduction in cell viability: 30 µM
Protocol: (§1) The cells were exposed to the test compounds for 24 h and cytotoxicity was quantified with MTT and LDH assays as described previously (Talman et al. [2011]). For the determination of cell membrane integrity, 50 µl of medium from each well was transferred onto a new 96-well plate followed by addition of 50 µl of substrate solution containing 1.3 mM β-nicotinamide adenine dinucleotide, 660 µM iodonitrotetrazolium, 54 mM L(+)-lactic acid, 280 µM phenazine methosulphate and 0.2 M Tris–HCl (pH 8.0). After a 30-min incubation, the reaction was stopped by adding 50 µl of 1 M acetic acid to each well and absorbance was measured at 490 nm using Victor2 plate reader (PerkinElmer, Turku, Finland). Spontaneous LDH release was measured from untreated cells, maximal LDH release from cells lysed with 0.9% Triton X-100 and background absorbance was measured from wells without cells. After background extraction, cytotoxicity was calculated as follows: cytotoxicity (%) = [(sample − spontaneous LDH release)/(maximal LDH release − spontaneous LDH release)] × 100. For quantification of metabolic activity, 3-(4,5-dimethylthiazol-2-yl)-2,5-diphenyltetrazolium bromide (MTT) was added to the cells at a final concentration of 0.5 mg/ml followed by 2 h incubation in cell culture conditions. The medium was then aspirated and formazan crystals were solubilized in DMSO. Absorbance was measured at 550 nm and absorbance at 650 nm was subtracted as background.
(§2) Mouse embryonic stem cells (mESCs), embryoid bodies (EBs), and primary mouse embryonic fibroblasts (MEFs) were used for toxicity experiments. E14 mESCs were cultured in feeder-free conditions on plates coated with 0.1% gelatin in DMEM with 15% FBS, GlutaMax, MEM non-essential amino acids, 2-mercaptoethanol, and leukemia inhibitory factor (LIF). For toxicity assays, the cells were dissociated with TrypLe and plated at 5,000 cells/well in gelatin-coated 96-well plates 24 hours prior to compound exposures. […]
(§3) 1640 without glucose with B-27 supplement in order to purify cardiomyocytes. From day 15 onwards the cells were maintained in RPMI 1640 supplemented with B-27 (RB+ins). Beating hiPSC-CMs were dissociated between days 15 and 22 by incubating them in cell dissociation solution containing 40% enzyme-free cell dissociation buffer, 40% RPMI 1640 and 20% trypsin-EDTA (final trypsin concentration 0.01%) for 7–8 min, whereafter the cells were collected and trypsin was inactivated in RB+ins supplemented with 10% FBS. After centrifugation the cells were suspended in RB+ins with 10% FBS containing 10 µM ROCK inhibitor and seeded at 15,000 cells/well (cytotoxicity assays) or 20,000 cells/well (high content analysis) in gelatin-coated 96-well plates. The cells were let to attach for 2 days at 37 °C in standard conditions, whereafter the compounds were added in RB+ins. In general, the differentiation yielded an almost pure (>95%) cardiomyocyte culture.
(§4) Syntheses and characterization of compounds
Materials and general procedures. All reagents were acquired from Sigma-Aldrich (Schnelldorf, Germany) and Enamine (Kiev, Ukraine), and were used without further purification. All reactions in anhydrous solvents were conducted in oven-dried glassware under anhydrous argon. Thin-layer chromatography (TLC) was performed using Silica Gel 60 F254 (Merck) and Silica Gel 60 NH2 F254s aluminium sheets (Merck), visualized by UV illumination and stained with ninhydrin in EtOH (1.5% w/v). […] The 1H and 13C NMR spectra were recorded on a Varian

[1] = tested on: mESC derivatives from day 5 embryoid bodies (D5EBs); test: MTT assay in D5EBs; type: cell-based, mouse; settings: 24 h
Protocol: as §1
as §2, with “exposures. To induce differentiation of mESCs, cells were plated on day 0 in 20 µl hanging drops at 25,000 cells/ml in inverted V-bottom plates in DMEM with 20% FBS and with all above supplements except LIF. On day 2 medium was added to EBs, and the EBs were dissociated with TrypLe and plated at 5,000 cells/well in gelatin-coated 96-well plates on day 5 and exposed to test compounds 24 later. Primary MEFs were cultured on 0.1% gelatin-coated plates in DMEM with 10%” for “exposures.”
as §3, §4
Materials and general procedures. […]

SMILES | sensitivity of cell type to compound (viability) (mESCs) | sensitivity of cell type to compound (viability) [1] | reduction in cell viability (mESCs) | reduction in viability ([1]; 30 µM) | reduction in metabolic activity ([1]; at ≥ 10 µM)
COc1ccc(-c2cc(N)nn2C(=O)c2c(-c3ccccc3)noc2C)cc1 [3i-1229] | sensitive | sensitive | – | – | –
CCN(CC)c1ccc(NC(=O)c2cc(C)oc2-c2ccccc2)cc1 [3i-1148] | sensitive | sensitive | – | – | –
CCN(CC)c1ccc(NC(=O)c2c(C)noc2-c2cc(C)on2)cc1 [3i-1047] | – | – | 38–45% | 38–45% | –
CCC(=O)N(Cc1ccc(N(CC)CC)cc1)c1c(-c2ccccc2)noc1C [3i-1120] | sensitive | sensitive | – | – | –
CCN(CC)c1ccc(NC(=O)c2c(-c3ccccc3)noc2C)cc1 [3i-1000] | – | – | 56% | – | moderate, but not statistically significant
